Biological target: T1, K-Ras G12C (Homo sapiens, UniProt P01116, G12C)
T1 construct: This protein contained 188 amino acids in total, including an N-terminal 6-Histidine tag; made in house; host or cells: E. coli BL21
Assay: CAF assay (% CAF; method in Example 7, not in this part)
Type: binding
Conditions: 10 uM compound, 1 h incubation

Row | SMILES | % CAF @ 10 uM, 1h [%]
1 | C=CC(=O)N1CCN(c2nc(=O)n3c4c(c(-c5cc(F)c(F)cc5F)c(Cl)cc24)SC[C@H]3COCOC)[C@@H](C)C1 [Example 466, (3R)-7-((S)-4-acryloyl-2-methylpiperazin-1-yl)-9-chloro-3-((methoxymethoxy)methyl)-10-(2,4,5-trifluorophenyl)-2H-[1,4]thiazino[2,3,4-ij]quinazolin-5(3H)-one] | 22.6
2 | C=CC(=O)N1C[C@H](C)N(c2nc(=O)n3c4c(c(-c5cc(Cl)c(F)cc5F)c(Cl)cc24)SC[C@@H]3CC2CCN(C3CC3)CC2)C[C@H]1C [Example 467, (3S)-7-((2S,5R)-4-acryloyl-2,5-dimethylpiperazin-1-yl)-9-chloro-10-(5-chloro-2,4-difluorophenyl)-3-((1-cyclopropylpiperidin-4-yl)methyl)-2H-[1,4]thiazino[2,3,4-ij]quinazolin-5(3H)-one] | 44.3
3 | C=CC(=O)N1C[C@H](C)N(c2nc(=O)n3c4c(c(-c5ccc(F)cc5F)c(Cl)cc24)SC[C@@H]3CN2CCn3c(nnc3C(F)(F)F)C2)C[C@H]1C [Example 468, (3S)-7-((2S,5R)-4-acryloyl-2,5-dimethylpiperazin-1-yl)-9-chloro-10-(2,4-difluorophenyl)-3-((3-(trifluoromethyl)-5,6-dihydro-[1,2,4]triazolo[4,3-a]pyrazin-7(8H)-yl)methyl)-2H-[1,4]thiazino[2,3,4-ij]quinazolin-5(3H)-one] | 68.6
4 | C=CC(=O)N1CCN(c2nc(=O)n3c4c(c(-c5cc(F)c(F)cc5F)c(Cl)cc24)SC[C@@H]3CN2CCC3(CC2)COC3)[C@@H](C)C1 [Example 469, (3S)-3-(2-oxa-7-azaspiro[3.5]nonan-7-ylmethyl)-7-((S)-4-acryloyl-2-methylpiperazin-1-yl)-9-chloro-10-(2,4,5-trifluorophenyl)-2H-[1,4]thiazino[2,3,4-ij]quinazolin-5(3H)-one] | 57.8
5 | C=CC(=O)N1CCN(c2nc(=O)n3c4c(c(-c5cc(Cl)c(F)cc5F)c(C(F)(F)F)cc24)SC[C@H]3COCOC)[C@@H](C)C1 [Example 470, (3R)-7-((S)-4-acryloyl-2-methylpiperazin-1-yl)-10-(5-chloro-2,4-difluorophenyl)-3-((methoxymethoxy)methyl)-9-(trifluoromethyl)-2H-[1,4]thiazino[2,3,4-ij]quinazolin-5(3H)-one] | 35
6 | C=CC(=O)N1CCN(c2nc(=O)n3c4c(c(-c5cc(F)c(F)cc5F)c(C(F)(F)F)cc24)SC[C@H]3COCOC)[C@@H](C)C1 [Example 471, (3R)-7-((S)-4-acryloyl-2-methylpiperazin-1-yl)-3-((methoxymethoxy)methyl)-9-(trifluoromethyl)-10-(2,4,5-trifluorophenyl)-2H-[1,4]thiazino[2,3,4-ij]quinazolin-5(3H)-one] | 23.9
7 | C=CC(=O)N1CCN(c2nc(=O)n3c4c(c(-c5ccc(F)cc5F)c(Cl)cc24)SC[C@@H]3CN2CCC3(CC2)COC3)[C@@H](C)C1 [Example 472, (3S)-3-(2-oxa-7-azaspiro[3.5]nonan-7-ylmethyl)-7-((S)-4-acryloyl-2-methylpiperazin-1-yl)-9-chloro-10-(2,4-difluorophenyl)-2H-[1,4]thiazino[2,3,4-ij]quinazolin-5(3H)-one] | 72.3
8 | C=CC(=O)N1C[C@H](C)N(c2nc(=O)n3c4c(c(-c5ccc(F)cc5)c(Cl)cc24)SC[C@@H]3CN2CCC3(CC2)COC3)C[C@H]1C [Example 473, (S)-3-(2-oxa-7-azaspiro[3.5]nonan-7-ylmethyl)-7-((2S,5R)-4-acryloyl-2,5-dimethylpiperazin-1-yl)-9-chloro-10-(4-fluorophenyl)-2H-[1,4]thiazino[2,3,4-ij]quinazolin-5(3H)-one] | 65.8
9 | C=CC(=O)N1CCN(c2nc(=O)n3c4c(c(-c5ccc(F)c6cccnc56)c(Cl)cc24)SC[C@@H]3COC)[C@@H](C)C1 [Example 474, (3S)-7-((S)-4-acryloyl-2-methylpiperazin-1-yl)-9-chloro-10-(5-fluoroquinolin-8-yl)-3-(methoxymethyl)-2,3-dihydro-5H-[1,4]thiazino[2,3,4-ij]quinazolin-5-one] | 73.3
10 | C=CC(=O)N1C[C@H](C)N(c2nc(=O)n3c4c(c(-c5cc(F)c(F)cc5F)c(Cl)cc24)SC[C@@H]3CC2CCN(C3CC3)CC2)C[C@H]1C [Example 475, (3S)-7-((2S,5R)-4-acryloyl-2,5-dimethylpiperazin-1-yl)-9-chloro-3-((1-cyclopropylpiperidin-4-yl)methyl)-10-(2,4,5-trifluorophenyl)-2H-[1,4]thiazino[2,3,4-ij]quinazolin-5(3H)-one] | 49.8
11 | C=CC(=O)N1C[C@H](C)N(c2nc(=O)n3c4c(c(-c5cc(F)c(F)cc5F)c(Cl)cc24)SC[C@@H]3CC2CCN(CC(F)F)CC2)C[C@H]1C [Example 476, (3S)-7-((2S,5R)-4-acryloyl-2,5-dimethylpiperazin-1-yl)-9-chloro-3-((1-(2,2-difluoroethyl)piperidin-4-yl)methyl)-10-(2,4,5-trifluorophenyl)-2H-[1,4]thiazino[2,3,4-ij]quinazolin-5(3H)-one] | 53.8
12 | C=CC(=O)N1C[C@H](C)N(c2nc(=O)n3c4c(c(-c5ccc(F)cc5F)c(Cl)cc24)SC[C@@H]3CC2CCN(CC(F)F)CC2)C[C@H]1C [Example 477, (3S)-7-((2S,5R)-4-acryloyl-2,5-dimethylpiperazin-1-yl)-9-chloro-3-((1-(2,2-difluoroethyl)piperidin-4-yl)methyl)-10-(2,4-difluorophenyl)-2H-[1,4]thiazino[2,3,4-ij]quinazolin-5(3H)-one] | 63.5
13 | C=CC(=O)N1C[C@H](C)N(c2nc(=O)n3c4c(c(-c5ccc(F)cc5F)c(Cl)cc24)SC[C@@H]3CC2CCN(C3CC3)CC2)C[C@H]1C [Example 478, (3S)-7-((2S,5R)-4-acryloyl-2,5-dimethylpiperazin-1-yl)-9-chloro-3-((1-cyclopropylpiperidin-4-yl)methyl)-10-(2,4-difluorophenyl)-2H-[1,4]thiazino[2,3,4-ij]quinazolin-5(3H)-one] | 70.7
14 | C=CC(=O)N1CCN(c2nc(=O)n3c4c(c(-c5ccc(F)cc5F)c(Cl)cc24)SC[C@H]3COCOC)[C@@H](C)C1 [Example 479, (3R)-7-((S)-4-acryloyl-2-methylpiperazin-1-yl)-9-chloro-10-(2,4-difluorophenyl)-3-((methoxymethoxy)methyl)-2H-[1,4]thiazino[2,3,4-ij]quinazolin-5(3H)-one] | 42
15 | C=CC(=O)N1C2CC(=O)CC1CN(c1nc(=O)n3c4c(c(-c5ccc(F)cc5F)c(C(F)(F)F)cc14)SCCC3)C2 [Example 486, 8-(9-acryloyl-7-oxo-3,9-diazabicyclo[3.3.1]nonan-3-yl)-11-(2,4-difluorophenyl)-10-(trifluoromethyl)-3,4-dihydro-2H,6H-[1,4]thiazepino[2,3,4-ij]quinazolin-6-one] | 95

Next, values leading:

Row | % CAF @ 10 uM, 1h [%] | SMILES
16 | 61.2 | C=CC(=O)N1CCN(c2nc(=O)n3c4c(c(-c5cc(F)c(F)cc5F)c(Cl)cc24)SC[C@@H]3CN2CCN(CC(F)F)CC2)[C@@H](C)C1 [Example 480, (3S)-7-((S)-4-acryloyl-2-methylpiperazin-1-yl)-9-chloro-3-((4-(2,2-difluoroethyl)piperazin-1-yl)methyl)-10-(2,4,5-trifluorophenyl)-2H-[1,4]thiazino[2,3,4-ij]quinazolin-5(3H)-one]
17 | 59.4 | C=CC(=O)N1C[C@H](C)N(c2nc(=O)n3c4c(c(-c5ccc(F)cc5)c(C(F)(F)F)cc24)SC[C@@H]3CC2CN(CC(F)F)C2)C[C@H]1C [Example 481, (S)-7-((2S,5R)-4-acryloyl-2,5-dimethylpiperazin-1-yl)-3-((1-(2,2-difluoroethyl)azetidin-3-yl)methyl)-10-(4-fluorophenyl)-9-(trifluoromethyl)-2,3-dihydro-5H-[1,4]thiazino[2,3,4-ij]quinazolin-5-one]
18 | 96 | C=CC(=O)N1CCN(c2nc(=O)n3c4c(c(-c5ccc(F)cc5F)c(Cl)cc24)SC[C@@H](OC)C3)[C@@H](C)C1 [Example 487, (3S)-8-((S)-4-acryloyl-2-methylpiperazin-1-yl)-10-chloro-11-(2,4-difluorophenyl)-3-methoxy-3,4-dihydro-2H,6H-[1,4]thiazepino[2,3,4-ij]quinazolin-6-one]
19 | 96 | C=CC(=O)N1CCN(c2nc(=O)n3c4c(c(-c5ccc(F)cc5F)c(Cl)cc24)SC[C@H](OC)C3)[C@@H](C)C1 [Example 488, (3R)-8-((S)-4-acryloyl-2-methylpiperazin-1-yl)-10-chloro-11-(2,4-difluorophenyl)-3-methoxy-3,4-dihydro-2H,6H-[1,4]thiazepino[2,3,4-ij]quinazolin-6-one]
20 | 96 | C=CC(=O)N1CCN(c2nc(=O)n3c4c(c(-c5ccc(F)cc5F)c(C(F)(F)F)cc24)SC[C@@H](OC)C3)CC1 [Example 489, (3S)-8-(4-acryloylpiperazin-1-yl)-11-(2,4-difluorophenyl)-3-methoxy-10-(trifluoromethyl)-3,4-dihydro-2H,6H-[1,4]thiazepino[2,3,4-ij]quinazolin-6-one]
21 | 60 | C=CC(=O)N1C[C@H](C)N(c2nc(=O)n3c4c(c(-c5cc(F)c(F)cc5F)c(C(F)(F)F)cc24)SC[C@@H]3COC)C[C@H]1C [Example 491, (3S)-7-((2S,5R)-4-acryloyl-2,5-dimethylpiperazin-1-yl)-3-(methoxymethyl)-9-(trifluoromethyl)-10-(2,4,5-trifluorophenyl)-2H-[1,4]thiazino[2,3,4-ij]quinazolin-5(3H)-one]
22 | 63.2 | C=CC(=O)N1C[C@H](C)N(c2nc(=O)n3c4c(c(-c5cc(Cl)c(F)cc5F)c(C(F)(F)F)cc24)SC[C@@H]3COC)C[C@H]1C [Example 492, (3S)-7-((2S,5R)-4-acryloyl-2,5-dimethylpiperazin-1-yl)-10-(5-chloro-2,4-difluorophenyl)-3-(methoxymethyl)-9-(trifluoromethyl)-2H-[1,4]thiazino[2,3,4-ij]quinazolin-5(3H)-one]

Source: patent US20230107642A1 (Erasca, Inc., priority 2020, published 2023)
